Assay results published in US20200017496A1 (priority 2017, published 2020).
Like-named read-outs stand apart in the source and are kept apart here.

Assays:
Assay in all cases: MIC of compounds alone and combined with antibacterials, broth microdilution (CLSI)
Format in all cases: cell-based
[1] = system: Salmonella typhimurium (STY) isolates
In short: (§1)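 Compound MIC, and antibacterial MIC at each fixed compound level, taken by visual inspection as lowest concentration stopping growth. Inoculum: log-phase bacteria, final 5·10^5 CFU/mL, cation-adjusted Mueller-Hinton broth; 16-20 h, 35° C, ambient air.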

[2] = system: Klebsiella pneumoniae (KPN) isolates; conditions: for MIC ATB in combination: AF1 @ 4 μg/mL; for MIC: Klebsiella pneumoniae
In short: as §1

[3] = system: Enterobacter cloacae (ECL) isolates; conditions: for MIC: Enterobacter cloacae, ATB alone
In short: as §1

[4] = system: Citrobacter freundii (CFR) isolates; conditions: for MIC: Citrobacter freundii
In short: as §1

[5] = system: Klebsiella oxytoca (KOX) isolates; conditions: for MIC ATB in combination: AF1 @ 4 μg/mL; for MIC: Klebsiella oxytoca, ATB alone
In short: as §1

CO/N=C(\C(=O)N[C@@H]1C(=O)N2C(C(=O)O)=C(COC(N)=O)CS[C@H]12)c1ccco1 [FUR, Cefuroxime]
MIC ATB in combination ([1]; STY S3371, AF1 @ 4 μg/mL): 4 µg/mL
MIC ([1]; Salmonella enterica, TYPHIMURIUM, strain STY S3371 (OXA-1), ATB alone): 32 µg/mL
MIC ATB in combination ([2]; KPN 6299): 16 µg/mL
MIC ATB in combination ([2]; KPN 110376): 4 µg/mL
MIC ATB in combination ([2]; KPN 131119): 8 µg/mL
MIC ATB in combination ([2]; KPN 140513): 32 µg/mL
MIC ATB in combination ([2]; KPN 160143): 4 µg/mL
MIC ATB in combination ([2]; KPN 190128): 16 µg/mL
MIC ATB in combination ([2]; KPN 190270): 16 µg/mL
MIC ATB in combination ([2]; KPN 190425): 4 µg/mL
MIC ATB in combination ([2]; KPN 190551): 4 µg/mL
MIC ATB in combination ([2]; KPN 200047): 2 µg/mL
MIC ATB in combination ([2]; KPN 200327): 2 µg/mL
MIC ATB in combination ([2]; KPN 260251): 8 µg/mL
MIC ATB in combination ([2]; KPN 260252): 32 µg/mL
MIC ATB in combination ([2]; KPN 260376): 2 µg/mL
MIC ATB in combination ([2]; KPN 270077): 16 µg/mL
MIC ATB in combination ([2]; KPN 700603): 16 µg/mL
MIC ATB in combination ([2]; KPN ARA): 16 µg/mL
MIC ATB in combination ([2]; KPN BAA-1898): 4 µg/mL
MIC ATB in combination ([2]; KPN LIB): 8 µg/mL
MIC ATB in combination ([2]; KPN UFR22_O): 8 µg/mL
MIC ATB in combination ([2]; KPN UFR23): 4 µg/mL
MIC ATB in combination ([2]; KPN UFR24): 16 µg/mL
MIC ATB in combination ([2]; KPN UFR25): 4 µg/mL
MIC ATB in combination ([2]; KPN UFR27): 32 µg/mL
MIC ATB in combination ([2]; KPN UFR28): 4 µg/mL
MIC ATB in combination ([2]; KPN UFR65): 16 µg/mL
MIC ATB in combination ([2]; KPN UFR66): 32 µg/mL
MIC ATB in combination ([2]; KPN UFR67): 32 µg/mL
MIC ATB in combination ([2]; KPN UFR68): 8 µg/mL
MIC ATB in combination ([2]; KPN UFR76): >128 µg/mL
MIC ATB in combination ([2]; KPN UFR77): 32 µg/mL
MIC ATB in combination ([2]; KPN UFR78): >128 µg/mL
MIC ATB in combination ([2]; KPN UFR79): 32 µg/mL
MIC ATB in combination ([2]; KPN UFR80): 16 µg/mL
MIC ATB in combination ([2]; KPN UFR81): 32 µg/mL
MIC ATB in combination ([2]; KPN UFR215): 16 µg/mL
MIC ATB in combination ([2]; KPN UFR216): 4 µg/mL
MIC ATB in combination ([2]; KPN UFR217): 2 µg/mL
MIC ATB in combination ([2]; KPN UFR219): 8 µg/mL
MIC ATB in combination ([2]; KPN UFR220): 16 µg/mL
MIC ATB in combination ([2]; KPN UFR221): 4 µg/mL
MIC ATB in combination ([2]; KPN UFR222): 64 µg/mL
MIC ATB in combination ([2]; KPN UFR227O): 64 µg/mL
MIC [2]: > 256 µg/mL
MIC ([2]; BAA1898, strain KPN BAA-1898 (TEM-1, SHV-11, SHV-12, KPC-2), ATB alone, read-out: MIC): > 512 µg/mL
MIC ([2]; strain KPN 6299 (TEM-1, SHV-11, OXA-163), ATB alone, read-out: MIC): > 512 µg/mL
MIC ([2]; strain KPN 700603 (SHV-18, OXA-2), ATB alone, read-out: MIC): 32 µg/mL
MIC ([2]; strain KPN LIB (SHV-11, OXA-48), ATB alone, read-out: MIC): 16 µg/mL
MIC ([2]; strain KPN UFR22_O (TEM-1, SHV-1, OXA-48), ATB alone, read-out: MIC): 32 µg/mL
MIC ([2]; strain KPN UFR23 (TEM-1, SHV-1, OXA-48), ATB alone, read-out: MIC): 8 µg/mL
MIC ([2]; strain KPN UFR24 (TEM-1, SHV-2, SHV-11, OXA-1, OXA-48, OXA-47), ATB alone, read-out: MIC): 128 µg/mL
MIC ([2]; strain KPN UFR77 (CMY-2), ATB alone, read-out: MIC): 64 µg/mL
MIC ([2]; strain KPN UFR80 (SHV-11, DHA-1, OXA-1), ATB alone, read-out: MIC): 32 µg/mL
MIC ATB in combination ([3]; ECL 190408, AF1 @ 4 μg/mL): 4 µg/mL
MIC ATB in combination ([3]; ECL 200322, AF1 @ 4 μg/mL): 32 µg/mL
MIC ATB in combination ([3]; ECL 260508, AF1 @ 4 μg/mL): 32 µg/mL
MIC ATB in combination ([3]; ECL P99, AF1 @ 4 μg/mL): 64 µg/mL
MIC ATB in combination ([3]; ECL UFR12, AF1 @ 4 μg/mL): 16 µg/mL
MIC ATB in combination ([3]; ECL UFR60, AF1 @ 4 μg/mL): 64 µg/mL
MIC ATB in combination ([3]; ECL UFR70, AF1 @ 4 μg/mL): 32 µg/mL
MIC ATB in combination ([3]; ECL UFR194, AF1 @ 4 μg/mL): 32 µg/mL
MIC ATB in combination ([3]; ECL UFR200, AF1 @ 4 μg/mL): 16 µg/mL
MIC ([3]; strain ECL UFR197 (TEM-1, CTX-M-15, OXA-1, OXA-48)): > 256 µg/mL
MIC ([3]; strain ECL UFR198 (TEM-1, SHV-12, CTX-M-15, DHA-1, OXA-1, OXA-48)): > 256 µg/mL
MIC ([3]; strain ECL 2185D (OXA-163)): > 256 µg/mL
MIC ([3]; strain ECL 190310 (AmpC)): > 256 µg/mL
MIC ([3]; strain ECL 190408 (TEM-1, CTX-M-15, OXA-1)): > 256 µg/mL
MIC ([3]; strain ECL 200138 (AmpC)): > 256 µg/mL
MIC ([3]; strain ECL 200322 (TEM-1, CTX-M-15, OXA-1)): > 256 µg/mL
MIC ([3]; strain ECL 260033 (AmpC)): > 256 µg/mL
MIC ([3]; strain ECL 260253 (TEM-1, KPC-3)): > 256 µg/mL
MIC ([3]; strain ECL 260323 (AmpC)): > 256 µg/mL
MIC ([3]; strain ECL 260508 (TEM-1, CTX-M-15)): > 256 µg/mL
MIC ([3]; strain ECL NEM146383 (AmpC)): > 256 µg/mL
MIC ([3]; strain ECL P99 (AmpC), read-out: MIC): > 512 µg/mL
MIC ([3]; strain ECL UFR12 (CTX-M-9, OXA-48)): > 256 µg/mL
MIC ([3]; strain ECL UFR13 (TEM-1, SHV-12, CTX-M-9, OXA-48)): > 256 µg/mL
MIC ([3]; strain ECL UFR14 (TEM-1, SHV-12, CTX-M-15, DHA-1, OXA-1, OXA-48)): > 256 µg/mL
MIC ([3]; strain ECL UFR60 (TEM-1, CTX-M-15, KPC-2)): > 256 µg/mL
MIC ([3]; strain ECL UFR70 (TEM-1, CTX-M-15, CMY-2, OXA-1, Porin loss)): > 256 µg/mL
MIC ([3]; strain ECL UFR84 (TEM-1, AmpC, OXA-1)): > 256 µg/mL
MIC ([3]; strain ECL UFR85 (TEM-1, CTX-M-15, AmpC)): > 256 µg/mL
MIC ([3]; strain ECL UFR194 (OXA-48)): 32 µg/mL
MIC ([3]; strain ECL UFR195 (TEM-1, CTX-M-15, OXA-1, OXA-48)): > 256 µg/mL
MIC ([3]; strain ECL UFR196 (TEM-1, CTX-M-15, OXA-1, OXA-48)): > 256 µg/mL
MIC ([3]; strain ECL UFR200 (TEM-1, SHV-12, KPC-2)): > 256 µg/mL
MIC ATB in combination ([3]; strain ECL UFR195, antibacterial combined with AF1 @ 4 μg/mL): 32 µg/mL
MIC ATB in combination ([3]; strain ECL UFR196, antibacterial combined with AF1 @ 4 μg/mL): 64 µg/mL
MIC ATB in combination ([3]; strain ECL UFR197, antibacterial combined with AF1 @ 4 μg/mL): 64 µg/mL
MIC ATB in combination ([4]; CFR UFR10, AF1 @ 4 μg/mL): 8 µg/mL
MIC ATB in combination ([4]; CFR UFR11, AF1 @ 4 μg/mL): >128 µg/mL
MIC ATB in combination ([4]; CFR UFR83, AF1 @ 4 μg/mL): >128 µg/mL
MIC ATB in combination ([4]; CFR UFR146, AF1 @ 4 μg/mL): 16 µg/mL
MIC ATB in combination ([4]; CFR UFR248, AF1 @ 4 μg/mL): 8 µg/mL
MIC ATB in combination ([4]; CFR UFR249, AF1 @ 4 μg/mL): 8 µg/mL
MIC ATB in combination ([4]; CFR UFR250, AF1 @ 4 μg/mL): 8 µg/mL
MIC [4]: > 256 µg/mL
MIC ([4]; ATB alone, strain CFR UFR253 (TEM-1, SHV-12, OXA-48), read-out: MIC): 32 µg/mL
MIC ([4]; ATB alone, strain CFR UFR254 (VEB-1b, OXA-48, qnrA), read-out: MIC): 32 µg/mL
MIC ([4]; strain CFR UFR10 (OXA-48), ATB alone, read-out: MIC): > 256 µg/mL
MIC ([4]; strain CFR UFR11 (TEM-1, OXA-1, OXA-48), ATB alone, read-out: MIC): > 256 µg/mL
MIC ([4]; strain CFR UFR83 (TEM-3, AmpC), ATB alone, read-out: MIC): > 256 µg/mL
MIC ([4]; strain CFR UFR248 (CTX-M-15), ATB alone, read-out: MIC): > 256 µg/mL
MIC ([4]; strain CFR UFR249 (TEM-1, CTX-M-15), ATB alone, read-out: MIC): > 256 µg/mL
MIC ([4]; strain CFR UFR250 (TEM-1, SHV-28, CTX-M-15), ATB alone, read-out: MIC): > 256 µg/mL
MIC ATB in combination ([4]; strain CFR UFR253, antibacterial combined with AF1 @ 4 μg/mL): 4 µg/mL
MIC ATB in combination ([4]; strain CFR UFR254, antibacterial combined with AF1 @ 4 μg/mL): 2 µg/mL
MIC ATB in combination ([5]; KOX UFR21): 16 µg/mL
MIC ATB in combination ([5]; KOX UFR173): 4 µg/mL
MIC ATB in combination ([5]; KOX UFR223): 2 µg/mL
MIC ATB in combination ([5]; KOX UFR224): 2 µg/mL
MIC ([5]; strain KOX UFR21 (TEM-1, CTX-M-15, OXA-48)): > 256 µg/mL
MIC ([5]; strain KOX UFR173 (OXY2-2), read-out: MIC): > 256 µg/mL
MIC ([5]; strain KOX UFR223 (SHV-11, OXA-48), read-out: MIC): 8 µg/mL
MIC ([5]; strain KOX UFR224 (CTX-M-15, OXA-48)): > 256 µg/mL
